Test results published in patent publication US8455240B2, “Use of thermophilic sulphate-reducing archaea for the implementation of a process for the degradation of hydrocarbons” (Institut de Recherche pour le Development (I.R.D.), priority 2005, dated 2013).
Values joined by “and” are separate entries in the source; they are usually repeats but may differ in a detail not shown here. Equal entries are not always repeated. Marks after values point to notes of the source that are not given here.

Legend:
strain L-3 [1] = assay: Subculture on hydrocarbons, strain L-3 (sulphide production); type: cell-based, Archaeoglobus fulgidus CNCM I-3465 (strain L-3)
Procedure: (§1) Experimentally, 4 ml of Cord-Ruwish reagent comprising 50 mmol/l of HCl and 5 mmol/l of CuSO4 are added to 0.1 ml of sample. Copper sulphate (CuSO4) by reacting with hydrogen sulphide (H2S), forms a copper sulphide precipitate (CuS) after the reaction: CuSO4+H2S→CuS+H2SO4
(§2) According to this method, the CuS is assayed by spectrophotometry at 480 nm. The readings are carried out against a blank constituted by 4 ml of Cord-Ruwish reagent.
(§3) A subculture was carried out starting from the preceding experiment on naphthalene, DBT solubilized as previously in HMN, and on HMN alone, for the two strains studied.
(§4) For this subculture, apart from the tests containing the hydrocarbon (DBT, naphthalene (Naph), […]), and seeded with the previously chosen inoculum, abiotic controls (negative controls) containing the substrate (hydrocarbon) but not inoculated were produced for the purpose of quantifying the sulphide production which could be due to chemical reactions between the different constituents of the medium. In these controls there was no development in the concentration of sulphide over a period of 20 days (Table 4).

strain L-3 [2] = assay: Degradation of different substrates by the strain L-3 as a function of the electron acceptor; type: cell-based, Archaeoglobus fulgidus CNCM I-3465 (strain L-3); parameters: total H2S: unit not given here
Procedure: as §1, §2
(§5) The analysis and quantification of the metabolites are carried out by HPLC by measuring the disappearance of the substrate and the appearance of different metabolism products.
(§6) The study of the degradation abilities of different substrates of the strain L-3 was based on a comparison with the collection strain, Archaeoglobus fulgidus (DSM 4304). The degradation of the substrates, by the two strains was monitored by a measurement of the cell biomass at 580 nm, a sulphide assay produced according to the Cord-Ruwish method, a study of the degradation metabolites by HPLC, completed by a CO2 assay with a GPC-Katharometer.
(§7) Two series of tests were prepared, one with thiosulphate, the other with sulphate as an electron acceptor.

strain L-3 [3] = assay: Screening for hydrocarbon degradation, strain L-3 (sulphide production, Cord-Ruwish); type: cell-based, Archaeoglobus fulgidus CNCM I-3465 (strain L-3); conditions: for Count / OD 580 / H2S: choice of the inoculum for the subculture; for H2S: tubes of the screening; for ΔS tf-ti: final minus initial sulphide
Procedure: as §1, §2
(§8) The study of the hydrocarbon degradation abilities is an experiment which requires a particularly long incubation. Thus, it was carried out in Bellco tubes sealed with thick rubber stoppers.
(§9) For these experiments, tubes containing 10 ml of culture medium without substrate, are 10% inoculated, then the hydrocarbon is introduced by injection through the stopper.
(§10) The hydrocarbons chosen are model molecules belonging to the different classes of hydrocarbons, namely: • hexadecane (CH3(CH2)14CH3, C16), a saturated linear aliphatic hydrocarbon; • hexadecene (CH3(CH2)13CHCH2, C16:1), an unsaturated linear aliphatic hydrocarbon of biogenic origin; • dibenzothiophene (DBT, C12H8S), a sulphur-containing aromatic hydrocarbon.
(§11) The aliphatic hydrocarbons (C16; C16:1) are added to the corresponding tubes, at a rate of 0.04 ml/10 ml of culture medium. The aromatic hydrocarbons (DBT) are solubilized in 2,2,4,4,6,8,8-heptamethylnonane (HMN, C16H34) at a rate of 20 mg/ml of HMN, and 0.75 ml of this solution is injected into 10 ml of culture medium.
(§12) 3 tubes were produced for each test and control. The growth of the strains was monitored indirectly by the production of sulphide.
as §3

A. fulgidus [4] = assay: Subculture on hydrocarbons, A. fulgidus (sulphide production); type: cell-based, Archaeoglobus fulgidus; conditions: for ΔS tf-ti: final minus initial sulphide
Procedure: as §1, §2, §3, §4

Archaeoglobus fulgidus [5] = assay: Degradation kinetics of lactate; type: cell-based
Procedure: as §5
This can be explained by the fact that the strain L-3 can have a substrate degradation metabolism different from that of Archaeoglobus fulgidus.

[6] = system: Archaeoglobus fulgidus (DSM 4304); assay: Degradation of different substrates by A. fulgidus as a function of the electron acceptor; type: cell-based; conditions: for total H2S: unit from b116
Procedure: as §1, §2, §5, §6, §7

Archaeoglobus fulgidus [7] = assay: Screening for hydrocarbon degradation, A. fulgidus (sulphide production, Cord-Ruwish); type: cell-based
Procedure: as §1, §2, §8, §9, §10, §11, §12, §3

strain L-3 [8] = assay: Sources of carbon and energy used by the strain L-3; type: cell-based, Archaeoglobus fulgidus CNCM I-3465 (strain L-3); conditions: thiosulphate as electron acceptor; for H2S (480 nm): unit from b126
Procedure: as §1, §2, §5
The study of the growth of the strain L-3 in the presence of different sources of carbon and energy was carried out with thiosulphate as an electron acceptor. The monitoring was carried out by estimation of the cell biomass (OD 580 nm), by assay of the sulphide production (Cord-Ruwish). The results were confirmed by HPLC analyses, and completed in certain cases by a CO2 assay.

[9] = system: Archaeoglobus fulgidus (collection strain); assay: Quantitative study of the degradation of hydrocarbons (DBT, HMN), collection strain; type: cell-based
Procedure: Experiments were carried out in order to establish the stoichiometric equation of the degradation of hydrocarbons in the case of the collection strain only. Thus, the hydrocarbon concentrations were assayed at the initial and final time, like the thiosulphate concentrations. Moreover, the increase in the biomass was followed by the increase in the microbial population based on the most probable number method (MPN).
In order to be able to quantify the hydrocarbons with precision, the thick rubber stoppers were covered with a Teflon film, an inert substance which avoids any loss of the hydrocarbon by absorption or adsorption.
The hydrocarbons were added at a rate of: • for the DBT: 10 mg of DBT dissolved in 0.5 ml of HMN, 0.5 ml of this solution is added to the tests; • for the HMN: 6 μl of HMN/10 ml of culture medium.
The tests prepared are inoculated with the preceding subculture.

A. fulgidus [10] = assay: Complementary experiment: sulphate as electron acceptor instead of thiosulphate; type: cell-based, Archaeoglobus fulgidus
Procedure: A first experiment was carried out with A. fulgidus for the purpose of studying the effect of sulphate as an electron acceptor instead of the thiosulphate used previously. […] This explains that at the bottom of the oceans where sulphate is abundant relative to thiosulphate which is in the minority, the phenomenon of DBT or HMN degradation cannot occur spontaneously.

[11] = system: Archaeoglobus fulgidus DSM 4304; assay: Monitoring of thiosulphate during the degradation of fatty acids by A. fulgidus; type: cell-based; conditions: end of May 2005; E1/E2 replicates; listed as C18 fatty acid
Procedure: (§13) The thiosulphate and sulphate assays are carried out by ion chromatography.
(§14) The analyses are carried out with a chromatograph (Compact IC 761, Metrohm) equipped with: • A […] ion-exchange column (Metrosep A SUPP 1-250 (6.1005.300)), size 4.6*250 mm; • The eluent used is Na2CO3 at a concentration of 3 mmol/l, at a flow rate of 1 to 2.5 ml/min; ((→the flow rate varies during the analysis)) • A sample processor (Metrohm 838); • A conductimeter; • A computer where the results are recorded, integrated and analyzed by software (761 Compact IC, Metrohm). III.3.2. Operating Method
(§15) The operating conditions are such that the temperature is 20° C. and the pressure is 5 MPa. The samples to be analyzed are filtered. The injection volume is 20 μl. The detection is of conductimetric electrochemical type with chemical suppression allowing elution gradients.
(§16) Monitoring of thiosulphate during the degradation of fatty acids by A. fulgidus and by L-3

strain L-3 [12] = assay: Monitoring of thiosulphate during the degradation of fatty acids by L-3; type: cell-based, Archaeoglobus fulgidus CNCM I-3465 (strain L-3); conditions: time 0 (Feb. 5, 2005); E1/E2 replicates
Procedure: as §13, §14, §15, §16

[13] = thiosulphate as electron acceptor
[14] = thiosulphate or sulphate as electron acceptor
[15] = choice of the inoculum for the subculture

Row | Compound | sulphide production (OD 480) 0 d (strain L-3 [1]) | sulphide production (OD 480) 8 d (strain L-3 [1]) | sulphide production (OD 480) 22 d (strain L-3 [1]) | sulphide production (OD 480) 45 d (strain L-3 [1]) | sulphide production (OD 480) 45 d (strain L-3 [3]) | sulphide production (OD 480) 8 d (A. fulgidus [4]) | sulphide production (OD 480) 22 d (A. fulgidus [4]) | sulphide production (OD 480) 45 d (A. fulgidus [4]) | sulphide production (OD 480) 45 d (Archaeoglobus fulgidus [7]) | sulphide production (OD 480) 60 d (Archaeoglobus fulgidus [7]) | sulphide production (OD 480) 70 d (Archaeoglobus fulgidus [7]) | sulphide assay at the end of 75 days [9] | sulphide production (OD 480) 70 d (strain L-3 [3]) | Count (strain L-3 [3]) | OD 580 (strain L-3 [3]) | H2S (strain L-3 [3]) | ΔS tf-ti (strain L-3 [3]) | ΔS tf-ti (A. fulgidus [4]) | microbial growth with sulphate as electron acceptor (A. fulgidus [10]) | sulphide production (OD 480) 10 d (Archaeoglobus fulgidus [7]) | also measured
1 | lactate | 0.2 mM and 0.1 mM | 4.8 mM and 6.1 mM | 4.7 mM and 8 mM | 3.9 mM | 1.8 mM and 3.2 mM and 1.7 mM | 0.3 mM | 0.3 mM | 0.2 mM and 0.3 mM | 3.5 mM and 3.8 mM and 4.3 mM | 3.3 mM and 3 mM and 3.1 mM | 3.9 mM and 3.7 mM |  |  |  |  |  |  |  |  |  | final OD 580 (strain L-3 [2]; sulphate as electron acceptor): 0.3076 and 0.2071; initial OD 580 (strain L-3 [2]; sulphate as electron acceptor): 0.1024 and 0.0888; total H2S (strain L-3 [2]; sulphate as electron acceptor): 2.8 and 1.4; final OD 580 (strain L-3 [2]; [13]): 0.1027 and 0.1161; initial OD 580 (strain L-3 [2]; [13]): 0.073 and 0.1029; total H2S (strain L-3 [2]; [13]): 9.3 and 7.2; ability of the strain L-3 to degrade the substrate (strain L-3 [2]; [14]): capable of degrading; lactate degradation at the end of three months (Archaeoglobus fulgidus [5]): all of the lactate is degraded; initial OD 580 ([6]; sulphate as electron acceptor): 0.1657 and 0.1456; total H2S ([6]; sulphate as electron acceptor): 7.1 mM and 12.2 mM; final OD 580 [6, 13]: 0.3681 and 0.314; initial OD 580 [6, 13]: 0.1333 and 0.1419; total H2S [6, 13]: 8 mM and 9.3 mM; ability of Archaeoglobus fulgidus to oxidize the substrate [6, 14]: capable of oxidizing; ΔS tf-ti (Archaeoglobus fulgidus [7]; final minus initial sulphide): 3.6 mM and 3.2 mM; OD 580 nm Final (strain L-3 [8]): 0.1249 and 0.1173; OD 580 nm Initial (strain L-3 [8]): 0.0742 and 0.0841; H2S (480 nm) (strain L-3 [8]): 5.7 mM and 2.9 mM; H2S (480 nm) (strain L-3 [8]; listed as lactate): 5.7 mM
2 | c1ccc2c(c1)sc1ccccc12 [DBT, dibenzothiophene] | 0.3 mM and 0.2 mM | 0.6 mM and 0.4 mM | 1.1 mM and 1 mM and 0.8 mM | 2 mM and 1.1 mM and 1 mM | 1 mM and 1.2 mM and 1.4 mM | 1.3 mM and 1.1 mM and 1.2 mM | 2.1 mM and 1.9 mM |  | 1.1 mM and 1.3 mM | 1.1 mM and 1.7 mM and 1.5 mM |  | approximately 9.5 mM | 0.9 mM and 1.2 mM and 1.4 mM | 8.17*10^7 Cells/ml and 6.55*10^7 Cells/ml | 0.2284 and 0.3479 | 0.9 mM and 1.2 mM | 0.8 mM and 1.2 mM and 1.5 mM | 3 mM and 3.1 mM and 3.2 mM | no microbial growth | 0.6 mM and 0.8 mM and 0.7 mM | sulphide production (OD 480) 60 d (strain L-3 [3]; 60 d): 0.6 mM and 0.7 mM and 1.1 mM; sulphide production (OD 480) 0 d (A. fulgidus [4]; 0 d): 0.2 mM and 0.1 mM; sulphide production (OD 480) 0 d (Archaeoglobus fulgidus [7]; 0 d, aromatics solubilized in HMN): 0.4 mM and 0.3 mM and 0.5 mM; sulphide value in the hydrocarbon screening stage (ΔS45d, Table 1) (Archaeoglobus fulgidus [7]; 45 days): ≤ 1 mM; Count (Archaeoglobus fulgidus [7]; [15]): 9.4*10^7 Cells/ml and 8.33*10^7 Cells/ml and 7.22*10^7 Cells/ml; OD 580 (Archaeoglobus fulgidus [7]; [15]): 0.9801 and 1.424 and 0.9189
3 | CC(CC(C)(C)C)CC(C)(C)CC(C)(C)C (centres unmarked) [HMN, 2,2,4,4,6,8,8-heptamethylnonane] | 0.3 mM and 0.2 mM | 0.6 mM and 0.5 mM and 0.4 mM | 1 mM and 0.9 mM and 0.6 mM |  | 0.7 mM and 0.9 mM | 0.6 mM and 1 mM and 0.7 mM |  | 2 mM and 3.5 mM and 2.2 mM | 0.8 mM and 1.1 mM | 0.9 mM and 0.7 mM and 1.3 mM | 1.3 mM and 0.9 mM and 1.2 mM | approximately 6 mM | 1 mM and 1.4 mM and 1.9 mM | 6.08*10^7 Cells/ml | 0.5921 and 0.6696 | 1 mM and 1.4 mM and 2 mM | 1 mM and 1.4 mM and 2 mM | 1.4 mM and 2.5 mM and 1.5 mM | no microbial growth | 0.8 mM and 1 mM | Sulphide (mM)(480 nM) ([9]; after 7 weeks of incubation, with yeast extract (EL)): 1.3 mM; sulphide production during the subculture, on average (A. fulgidus [4]): 1.8 mM; H2S (Archaeoglobus fulgidus [7]; choice of the inoculum for the subculture, tubes of the screening): 1.3 mM and 0.9 mM and 1.2 mM
4 | CCCCCCCCCCCCCCCCCC(=O)O [stearate] |  |  |  |  |  |  |  |  |  |  |  |  |  |  |  |  |  |  |  |  | thiosulphate, end of May 2005 [11]: 10.55 mM and 7.05 mM; thiosulphate, time 0 (strain L-3 [12]): 14.64* mM
